Experimental data reported in US20240262842A1, “SMALL MOLECULE INHIBITORS OF KRAS G12C MUTANT” (Merck Sharp & Dohme LLC, priority 2021, published 2024).

What was measured:
[1] = biological target: T1, interaction between GMPPNP-bound recombinant K-Ras4B G12C mutant protein and cRAF RAS-binding domain (cRAF-RBD) (Homo sapiens, UniProt P01116, G12C); assay: Inhibitory activity on interaction between KRAS G12C and cRAF (Alpha technology); conditions: GMPPNP-bound KRAS G12C incubated with compound 25° C. 1 hour; Table 2-1; read-out: IC50
T1 construct: His-tag (N)
T1 sequence (P01116 with tags, fused parts or gaps isoform P01116-2 G12C): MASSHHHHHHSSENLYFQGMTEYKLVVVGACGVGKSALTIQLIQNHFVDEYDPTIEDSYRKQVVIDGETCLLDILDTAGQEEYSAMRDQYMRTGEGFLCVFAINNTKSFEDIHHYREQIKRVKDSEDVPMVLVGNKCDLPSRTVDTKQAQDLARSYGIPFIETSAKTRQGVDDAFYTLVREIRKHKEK
Method in brief: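 Alpha signal measured 1.5 h after adding cRAF-RBD (aa 50-132) and detection reagents to GMPPNP-bound KRAS G12C (aa 1-169) pretreated 1 h at 25° C with compound (pH 7.5 buffer). 0% inhibition = DMSO, 100% = GDP-loaded KRAS; IC50 by curve fit.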

[2] = test system: MIA PaCa-2 cells; assay: Growth inhibition activity on KRAS-G12C mutant cell line (CellTiter-Glo 3D); type: cell-based, human; conditions: Homo sapiens, MIA PaCa-2, 72 h, MIA PaCa-2, 3-day culture with compound; Table 3-1
Method in brief: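 IC50 (nM) derived from inhibition of luminescence (CellTiter-Glo 3D) relative to compound-free wells. Cells were seeded in U-bottom plates, grown 1 day, then exposed to compound for 3 days at 37 °C with 0.2% final DMSO.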

Structure (SMILES)	IC50 [1] [nM]	IC50 [2] [nM]
Cn1cnc2c3c(c(C(F)(F)F)cc21)-c1cccn2c(C(=O)c4cc(F)c(NC(=O)/C=C/CN[C@H]5[C@@H]6COC[C@@H]65)c(F)c4)cc(c12)CCO3 [Example 147, (E)-4-(((1R,5S,6r)-3-oxa-bicyclo[3.1.0]hexan-6-yl)amino)-N-(2,6-difluoro-4-(9-methyl-7-(trifluoro-methyl)-13,14-dihydro-9H-imidazo[4″,5″:5′,6′]-benzo[1′,2′:2,3]oxocino-[4,5,6-hi]indolizine-2-carbonyl)phenyl)but-2-enamide]	7.49	15.3
Cc1nc2c3c(c(C(F)(F)F)cc2n1C)-c1cccn2c(C(=O)c4cc(F)c(NC(=O)C=CCNC5CCOC5)c(F)c4)nc(c12)CCN3C [Example 148, (S,E)-N-(2,6-difluoro-4-(8,9,11-trimethyl-6-(trifluoromethyl)-8,11,12,13-tetrahydro-1,2a,8,10,11-pentaazacycloocta[1,2,3-cd:5,4-e′]diindene-2-carbonyl)phenyl)-4-((tetrahydrofuran-3-yl)amino)but-2-enamide]	23.2	19.1
Cn1cnc2c3c(c(C(F)(F)F)cc21)-c1cccn2c(C(=O)c4cc(F)c(NC(=O)/C=C/CN5CCCC5)c(F)c4)cc(c12)CCO3 [Example 149, (E)-N-(2,6-difluoro-4-(9-methyl-7-(trifluorometh-yl)-13,14-dihydro-9H-imidazo[4″,5″:5′,6′]benzo-[1′,2′:2,3]oxocino[4,5,6-hi]indolizine-2-carbonyl)-phenyl)-4-(pyrrolidin-1-yl)but-2-enamide]	23.7	23.4
Cn1cnc2c3c(c(C(F)(F)F)cc21)-c1cccn2c(C(=O)c4cc(F)c(NC(=O)/C=C/CN5CC[C@H](O)C5)c(F)c4)cc(c12)CCO3 [Example 150, (S,E)-N-(2,6-difluoro-4-(9-methyl-7-(trifluoro-methyl)-13,14-dihydro-9H-imidazo[4″,5″:5′,6′]-benzo[1′,2′:2,3]oxocino-[4,5,6-hi]indolizine-2-carbonyl)phenyl)-4-(3-hydroxypyrrolidin-1-yl)-but-2-enamide]	17.1	31.2
Cn1cnc2c3c(c(C(F)(F)F)cc21)-c1cccn2c(C(=O)c4cc(F)c(NC(=O)/C=C/CN5CC[C@@H](O)C5)c(F)c4)cc(c12)CCO3 [Example 151, (R,E)-N-(2,6-difluoro-4-(9-methyl-7-(trifluoro-methyl)-13,14-dihydro-9H-imidazo[4″,5″:5′,6′]-benzo[1′,2′:2,3]oxocino-[4,5,6-hi]indolizine-2-carbonyl)phenyl)-4-(3-hydroxypyrrolidin-1-yl)-but-2-enamide]	15.5	33.9
Cn1cnc2c3c(c(C(F)(F)F)cc21)-c1cccn2c(C(=O)c4cc(F)c(NC(=O)/C=C/CN[C@@H]5[C@@H]6COC[C@@H]65)c(F)c4)cc(c12)CCO3 [Example 156, (E)-4-(((1R,5S,6s)-3-oxabicyclo[3.1.0]hexan-6-yl)amino)-N-(2,6-difluoro-4-(9-methyl-7-(trifluoromethyl)-13,14-dihydro-9H-imidazo-[4″,5″:5′,6′]benzo[1′,2′: 2,3]oxocino[4,5,6-hi]-indolizine-2-carbonyl)-phenyl)but-2-enamide]	8.06	10.3
CN1CCc2nc(C(=O)c3cc(F)c(NC(=O)C=CCNC4(C)COC4)c(F)c3)n3cccc(c23)-c2c(C(F)(F)F)cc3c(ncn3C)c21 [Example 157, (E)-N-(4-(8,11-dimethyl-6-(trifluoromethyl)-8,11,12,13-tetrahydro-1,2a,8,10,11-pentaaza-cycloocta[1,2,3-cd:5,4-e′]-diindene-2-carbonyl)-2,6-difluorophenyl)-4-((3-methyloxetan-3-yl)-amino)but-2-enamide]	67.6	62.1
